Reference: patent US20210046094A1, “COMPOSITIONS AND METHODS FOR TREATING PAIN” (THE UNITED STATES GOVERNMENT AS REPRESENTED BY THE …, priority 2018, published 2021)
“Also recorded” adds a separate entry of the source.

Columns and labels:
[1] = system: mice with peripheral nerve injury (PNI) by sciatic nerve cuffing; assay: Sciatic nerve cuff model of neuropathic pain: mechanical allodynia (von Frey filaments); type: in vivo, mouse
Text: WT mice underwent unilateral PNI by sciatic nerve cuffing, a widely accepted model of neuropathic pain in mice (Valcin et al. The sciatic nerve cuffing model of neuropathic pain in mice, J Vis Exp, PMID: 25078668 (2014)). Sciatic nerve cuffing reliably induces signs of chronic pain, including sustained mechanical and thermal allodynia. In this model, mechanical allodynia assessed using von Frey filaments develops within 1 week, and is sustained thereafter.
(§1) Sciatic nerve cuff model of neuropathic pain (Valcin et al. The sciatic nerve cuffing model of neuropathic pain in mice, J Vis Exp, PMID: 25078668 (2014)). Surgeries are performed under ketamine/xylazine anesthesia using aseptic techniques. The common branch of the right sciatic nerve is dissected and a 2 mm long section of pre-split PE-20 tubing is placed around it. Shams undergo the same surgery without cuffing.
Mechanical hypersensitivity. The threshold for ipsi- and contralateral hindpaw withdrawal is determined using von Frey filaments (Chaplan et al., Quantitative assessment of tactile allodynia in the rat paw, J Neurosci Methods, 53:55-63, PMID: 7990513(1994)).Mice are placed in clear Plexiglas boxes on an elevated mesh screen.
Calibrated von Frey filaments are applied to the plantar surface of each hindpaw (0.16-15 gm). The “up-down method” (Chaplan et al., Quantitative assessment of tactile allodynia in the rat paw, J Neurosci Methods, 53:55-63, PMID: 7990513(1994)) is used to determine the withdrawal threshold.
MECHANICAL ALLODYNIA. The threshold for ipsi- and contralateral hindpaw withdrawal is determined using von Frey filaments. von Frey filaments are applied to the plantar surface of each hindpaw (0.16-4 gm). The “up-down method (Chaplan et al., Quantitative assessment of tactile allodynia in the rat paw, J Neurosci Methods, 53:55-63, PMID 7990513 (1994))” is used to determine the withdrawal threshold, as in our previous studies (Masri et al., Zona incerta: a role in central pain, J Neurophysiol, 102:181-91, PMID 19403748 (2009); Whitt et al., Pathological activity in mediodorsal thalamus of rats with spinal cord injury pain, J Neurosci, 33:3915-26, PMID 23447602 (2013)). Alternatively, the withdrawal threshold is determined using the Hugo Basile Dynamic Plantar Aesthesiometer (Stoelting).
On day 0, all mice underwent unilateral sciatic nerve cuffing, in which a 2 mm long section of pre-split PE-20 tubing is placed around the right sciatic nerve under sterile conditions (Yalcin et al., The sciatic nerve cuffing model of neuropathic pain in mice, J Vis Exp, PMID 25078668 (2014)).

[2] = system: mice with peripheral nerve injury (PNI) by sciatic nerve cuffing; assay: Sciatic nerve cuff model: cold/thermal allodynia (acetone); type: in vivo, mouse; details: WT mice
Method: as §1
(§2) Cold allodynia is assessed using acetone. A 10 μL volume of acetone is propelled via air burst from a 200 μL pipette onto the mid-plantar surface of the hind paw without touching the skin. Time spent elevating/licking/biting/shaking the stimulated paw, up to 15 sec, is measured with a stop watch. Each paw is stimulated 5×, allowing 5 min to elapse between successive paw stimulations.
as §2, with “THERMAL ALLODYNIA” for “Cold allodynia”, “acetone (Carey et al., Inflammatory and Neuropathic Nociception is Preserved in GPR55 Knockout Mice, Sci Rep, 7:944, PMID 28428628 (2017)).” for “acetone.”

[3] = system: mice with peripheral nerve injury (PNI) by sciatic nerve cuffing; assay: Sciatic nerve cuff model: thermal hyperalgesia (Hargreaves method); type: in vivo, mouse; details: adult male mice; intrathecal at lumbar 5, 5 ng/hour ×14 days from day +15; tested day +28
Method: THERMAL […] is assessed using the Hargreaves method, using a Hargreaves-type apparatus (Ugo Basile Plantar Test Instrument; Stoelting). An unrestrained animal is placed in a Perspex enclosure on the top of glass pane. An infrared generator placed below glass pane is aimed at the plantar surface of the hind paw and the time to withdrawal is recorded automatically via an optic sensor, avoiding experimental bias. Paw-withdrawal latency is calculated as the mean of 3-5 different measurements taken at 15 min intervals. […] On day 0, all mice underwent unilateral sciatic nerve cuffing, in which a 2 mm long section of pre-split PE-20 tubing is placed around the right sciatic nerve under sterile conditions (Yalcin et al., The sciatic nerve cuffing model of neuropathic pain in mice, J Vis Exp, PMID 25078668 (2014)).

[4] = system: mice with peripheral nerve injury (PNI) by sciatic nerve cuffing; assay: Sciatic nerve cuff model: anxiety- and depression-like behaviors (open field, elevated plus maze, tail suspension); type: in vivo, mouse; details: WT mice; 10 μg/day intraperitoneal starting on day 21 after PNI
Method: ANXIETY-LIKE and DEPRESSION-LIKE BEHAVIORS are assessed only one time, they are administered during the 3 days preceding euthanasia, and the order in which tests are applied is from least stressful to more stressful (as listed below). We follow standard protocols, fully described in Yalcin et al (Yalcin et al., A time-dependent history of mood disorders in a murine model of neuropathic pain, Biol Psychiatry, 70:946-53, PMID 21890110 (2011)). Open field testing is employed for measuring locomotor activity and willingness to explore in mice. A computerized tracking system (ANY-Maze; Stoelting Co.) records animal movements and calculates speed, distance and other parameters. Time spent exploring the center of the open field is inversely related to anxiety. Elevated Plus Maze (Colbourn Instruments). Rodents naturally tend to explore novel environments, but open, well lit, elevated areas are perceived as aversive. This test is widely used in rodent models of anxiety. Tail suspension test (Harvard Apparatus), which measures immobility time, as well as energy and power in motion, is employed as a measure of depression-like behavior in rodents.

[5] = system: IL-6; assay: Quantitative immunohistochemistry of ipsilateral dorsal horn astrocytes after PNI: IL-6; type: in vivo, mouse
Text: (§3) Tissue analysis. Spinal cords are perfusion-fixed (4% PFA), cryoprotected and cryosectioned coronally (7 μm). The dorsal horns of L3-4, which innervates the plantar surface of the mouse hindpaw (Rigaud et al., Species and strain differences in rodent sciatic nerve anatomy: implications for studies of neuropathic pain, Pain, 136:188-201, PMID: 18316160 (2008)), are examined for markers of astrocyte activation (GFAP), Sur1-Trpm4 and IL-6, as well as the chemokines CCL2 and CXCL1. […]
(§4) Tissue analysis. […] The DRG and dorsal horns of L3-4, which innervate the plantar surface of the hindpaw (Rigaud et al., Species and strain differences in rodent sciatic nerve anatomy: implications for studies of neuropathic pain, Pain, 136:188-201, PMID 18316160 (2008)), are examined to quantify changes in, and the time course of those changes, for markers of astrocyte activation (GFAP), microglia/macrophage activation (Iba1, CD68), SUR1-TRPM4, IL-6, the chemokines, CCL2 and CXCL1 and their cognate receptors, CCR2 and CXCR2. Expression of these markers will be quantitatively compared in the different treatment groups using immunohistochemistry and in situ hybridization with cell-specific markers (GFAP, NeuN, Iba1, CD45). Quantitative comparisons will be validated using immunoblot and qPCR. […]

[6] = system: CCL2; assay: Quantitative immunohistochemistry of ipsilateral dorsal horn astrocytes after PNI: CCL2; type: in vivo, mouse
Text: as §3, §4

[7] = system: CXCL1; assay: Quantitative immunohistochemistry of ipsilateral dorsal horn astrocytes after PNI: CXCL1; type: in vivo, mouse
Text: as §3, §4

[8] = system: pCaMKII; assay: Astrocytic pCaMKII post-PNI (immunolabeling); type: in vivo, mouse; details: versus vehicle, n=3/group
[9] = Normal mechanical or thermal sensitivity thresholds (non-sensitized condition); type: in vivo; details: non-sensitized condition (not shown)
[10] = system: GFAP or SUR1; assay: Intrathecal infusion in uninjured, naive mouse: GFAP and SUR1 expression; type: in vivo
Text: Spinal cord-specific inhibition or downregulation of SUR1 in central glia. […] The anesthetized mouse is mounted in a stereotaxic apparatus, hair is clipped from the dorsal thoracolumbar region, and the skin is prepped with Betadine solution. Using microscopic visualization, a midline incision is made, the paraspinal muscles are dissected off of the spinous processes and laminae. The spinous processes of L6-S1 are removed using a high speed surgical drill, and the dura between them is punctured using a 27-g needle. The infusion cannula of a Brain infusion kit (30 gauge cannula; Brain Infusion kit 3) is advanced stereotactically 1 mm into the thecal sac and is secured to the spine with cement.

[11] = system: experimental autoimmune encephalomyelitis; details: cited from earlier work
[12] = infusion of an appropriate dose of injectable glibenclamide, non-diabetics; below hypoglycemic threshold; cited from earlier work
[13] = administered via transdermal skin patch, preclinical; cited from earlier work
[14] = WT mice, 10 μg/day intraperitoneal starting on day 21 after PNI
[15] = Example 1 mice (FIG. 2D), compared to vehicle-treated controls
[16] = mice from FIG. 10 (10 μg/day IP from day 21), tissues at day 49 (FIG. 6D)

In the case of `COc1ccc(Cl)cc1C(=O)NCCc1ccc(S(=O)(=O)NC(=O)NC2CCCCC2)cc1` [glibenclamide], the mechanical allodynia ([1]; WT mice, 10 μg IP loading dose plus 40 ng/hr subcutaneous via mini-osmotic pump ×2 weeks, shortly after PNI) is reported as “significant blunting”, the “duration of drug treatment required for complete reversal of mechanical allodynia” value [1, 14] is reported as 2-3 weeks and the mechanical allodynia [1, 14] is reported as “significantly ameliorated; also recorded: gradual but complete reversal”. For the same compound, the “allodynia symptoms (mechanical allodynia, FIG. 3C)” value ([1]; WT mice, treatment beginning on day 18 after PNI, after allodynia was well established) was “significant reversal”, the mechanical allodynia ([1]; adult male mice, intrathecal at lumbar 5, 5 ng/hour ×14 days from day +15, tested day +28) was “completely reversed” and the cold allodynia ([2]; 10 μg IP loading dose plus 40 ng/hr subcutaneous via mini-osmotic pump ×2 weeks, shortly after PNI) was “significant blunting”. For the same compound, the thermal allodynia ([2]; 10 μg/day intraperitoneal starting on day 21 after PNI) was “significantly ameliorated”, the thermal hyperalgesia [3] was “completely reversed” and the “anxiety behaviors (open field and elevated plus maze)” value [4] was “significantly ameliorated”. For the same compound, the “depression-like behaviors (tail suspension)” value [4] was “significantly ameliorated”, the “IL-6 in ipsilateral dorsal horn astrocytes” value [5, 15] was “significant reduction” and the “IL-6 in ipsilateral dorsal horn astrocytes” value [5, 16] was “significant reductions”. The “CCL2 in ipsilateral dorsal horn astrocytes” value [6, 15] was “significant reduction”, the “CCL2 in ipsilateral dorsal horn astrocytes” value [6, 16] was “significant reductions” and the “CXCL1 in ipsilateral dorsal horn astrocytes” value [7, 15] was “significant reduction”. For the same compound, the “CXCL1 in ipsilateral dorsal horn astrocytes” value [7, 16] was “significant reductions”, the “astrocytic pCaMKII” value [8] was “increases” and the “normal mechanical sensitivity thresholds” value [9] was “does not modify”. For the same compound, the “normal thermal sensitivity thresholds” value [9] was “does not modify”, the “upregulation of GFAP or SUR1” value [10] was “does not upregulate GFAP or SUR1” and the “entry into spinal cord tissues” value ([11]; CNS inflammatory condition (EAE)) was “readily enters spinal cord tissues”. For the same compound, the inflammation ([11]; EAE spinal cord) was “ameliorates inflammation”, the serum levels [12] was < 45 ng/mL and the plasma levels [13] was “steady plasma levels of drug that can be maintained below the hypoglycemic threshold”.
